# From the supplement of paper PMC10307832
# Assays:
# Test in all cases: relative viability (nuclei count vs DMSO), 5 days (fraction); higher = more cells survive
# [1] = tested on: A-427
# Summary of the method: (§1)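 Lung cancer cell lines, seeded in 1536-well plates, were treated the following day by pin tool with a single drug or with five library-drug doses (not always all listed) in √10 steps on top of a fixed anchor-drug dose. Cells were fixed and nuclei stained in one step after 5 days, and nuclei were counted. Relative viability is the nuclei count for treated wells divided by that for vehicle wells, reported as medians of duplicate plates.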
# [2] = tested on: CAL-12T
# Summary of the method: as §1
# [3] = tested on: COR-L 105
# Summary of the method: as §1
# [4] = tested on: EPLC-272H
# Summary of the method: as §1
# [5] = tested on: HCC-15
# Summary of the method: as §1
# [6] = tested on: HCC-44
# Summary of the method: as §1
# [7] = tested on: LC-2-ad
# Summary of the method: as §1
# [8] = tested on: LCLC-97TM1
# Summary of the method: as §1
# [9] = tested on: NCI-H1395
# Summary of the method: as §1
# [10] = tested on: NCI-H1563
# Summary of the method: as §1
# [11] = tested on: NCI-H1734
# Summary of the method: as §1
# [12] = tested on: NCI-H1792
# Summary of the method: as §1
# [13] = tested on: NCI-H1915
# Summary of the method: as §1
# [14] = tested on: NCI-H1975
# Summary of the method: as §1
# [15] = tested on: NCI-H2023
# Summary of the method: as §1
# [16] = tested on: NCI-H2347
# Summary of the method: as §1
# [17] = tested on: NCI-H2405
# Summary of the method: as §1
# [18] = tested on: NCI-H520
# Summary of the method: as §1
# [19] = tested on: NCI-H838
# Summary of the method: as §1
# [20] = tested on: SW 1573
# Summary of the method: as §1
# [21] = tested on: UMC-11
# Summary of the method: as §1
structure (smiles),measurement,setting,value
CCNC(=O)c1noc(-c2cc(C(C)C)c(O)cc2O)c1-c1ccc(CN2CCOCC2)cc1 [Luminespib] + C[C@]1(O)C[C@@H](c2nc(-c3ccc4ccc(-c5ccccc5)nc4c3)c3c(N)nccn32)C1 [Linsitinib] (partner 1 µM),relative viability,[1]; first compound 0.002 µM,1.12
same,relative viability,[1]; first compound 0.006325 µM,1.09
same,relative viability,[1]; first compound 0.02 µM,0.918
same,relative viability,[1]; first compound 0.06325 µM,1.12
same,relative viability,[1]; first compound 0.2 µM,1.09
same,relative viability,[2]; first compound 0.002 µM,0.761
same,relative viability,[2]; first compound 0.006325 µM,0.787
same,relative viability,[2]; first compound 0.02 µM,0.72
same,relative viability,[2]; first compound 0.06325 µM,0.128
same,relative viability,[2]; first compound 0.2 µM,0.115
same,relative viability,[3]; first compound 0.002 µM,0.843
same,relative viability,[3]; first compound 0.006325 µM,0.811
same,relative viability,[3]; first compound 0.02 µM,0.991
same,relative viability,[3]; first compound 0.06325 µM,0.245
same,relative viability,[3]; first compound 0.2 µM,0.207
same,relative viability,[4]; first compound 0.006325 µM,1.07
same,relative viability,[4]; first compound 0.02 µM,0.727
same,relative viability,[4]; first compound 0.06325 µM,1.11
same,relative viability,[4]; first compound 0.2 µM,1.14
same,relative viability,[5]; first compound 0.002 µM,0.837
same,relative viability,[5]; first compound 0.006325 µM,0.873
same,relative viability,[5]; first compound 0.02 µM,0.929
same,relative viability,[5]; first compound 0.06325 µM,0.57
same,relative viability,[5]; first compound 0.2 µM,0.519
same,relative viability,[6]; first compound 0.002 µM,0.68
same,relative viability,[6]; first compound 0.006325 µM,0.714
same,relative viability,[6]; first compound 0.02 µM,0.684
same,relative viability,[6]; first compound 0.06325 µM,0.251
same,relative viability,[6]; first compound 0.2 µM,0.158
same,relative viability,[7]; first compound 0.002 µM,0.887
same,relative viability,[7]; first compound 0.006325 µM,0.806
same,relative viability,[7]; first compound 0.02 µM,0.808
same,relative viability,[7]; first compound 0.06325 µM,0.165
same,relative viability,[7]; first compound 0.2 µM,0.129
same,relative viability,[8]; first compound 0.002 µM,0.213
same,relative viability,[8]; first compound 0.006325 µM,0.199
same,relative viability,[8]; first compound 0.02 µM,0.154
same,relative viability,[8]; first compound 0.06325 µM,0.174
same,relative viability,[8]; first compound 0.2 µM,0.192
same,relative viability,[9]; first compound 0.002 µM,1.06
same,relative viability,[9]; first compound 0.006325 µM,1.02
same,relative viability,[9]; first compound 0.02 µM,0.759
same,relative viability,[9]; first compound 0.06325 µM,0.772
same,relative viability,[9]; first compound 0.2 µM,0.326
same,relative viability,[10]; first compound 0.002 µM,1.34
same,relative viability,[10]; first compound 0.006325 µM,1.13
same,relative viability,[10]; first compound 0.02 µM,1.11
same,relative viability,[10]; first compound 0.06325 µM,0.535
same,relative viability,[10]; first compound 0.2 µM,0.542
same,relative viability,[11]; first compound 0.002 µM,0.917
same,relative viability,[11]; first compound 0.006325 µM,0.792
same,relative viability,[11]; first compound 0.02 µM,0.7
same,relative viability,[11]; first compound 0.06325 µM,0.258
same,relative viability,[11]; first compound 0.2 µM,0.167
same,relative viability,[12]; first compound 0.002 µM,0.444
same,relative viability,[12]; first compound 0.006325 µM,0.469
same,relative viability,[12]; first compound 0.02 µM,0.212
same,relative viability,[12]; first compound 0.06325 µM,0.297
same,relative viability,[12]; first compound 0.2 µM,0.106
same,relative viability,[13]; first compound 0.002 µM,1.12
same,relative viability,[13]; first compound 0.006325 µM,1.09
same,relative viability,[13]; first compound 0.02 µM,1.02
same,relative viability,[13]; first compound 0.06325 µM,1.11
same,relative viability,[13]; first compound 0.2 µM,1.05
same,relative viability,[14]; first compound 0.002 µM,1.08
same,relative viability,[14]; first compound 0.006325 µM,0.882
same,relative viability,[14]; first compound 0.02 µM,0.492
same,relative viability,[14]; first compound 0.06325 µM,0.156
same,relative viability,[14]; first compound 0.2 µM,0.141
same,relative viability,[15]; first compound 0.002 µM,0.652
same,relative viability,[15]; first compound 0.006325 µM,0.575
same,relative viability,[15]; first compound 0.02 µM,0.732
same,relative viability,[15]; first compound 0.06325 µM,0.0892
same,relative viability,[15]; first compound 0.2 µM,0.0832
same,relative viability,[16]; first compound 0.002 µM,1.03
same,relative viability,[16]; first compound 0.02 µM,0.824
same,relative viability,[16]; first compound 0.06325 µM,0.924
same,relative viability,[16]; first compound 0.2 µM,0.404
same,relative viability,[17]; first compound 0.002 µM,1.01
same,relative viability,[17]; first compound 0.006325 µM,0.721
same,relative viability,[17]; first compound 0.02 µM,0.613
same,relative viability,[17]; first compound 0.06325 µM,0.254
same,relative viability,[17]; first compound 0.2 µM,0.182
same,relative viability,[18]; first compound 0.002 µM,1.27
same,relative viability,[18]; first compound 0.006325 µM,0.966
same,relative viability,[18]; first compound 0.02 µM,0.94
same,relative viability,[18]; first compound 0.06325 µM,0.134
same,relative viability,[18]; first compound 0.2 µM,0.121
same,relative viability,[19]; first compound 0.002 µM,1
same,relative viability,[19]; first compound 0.006325 µM,0.942
same,relative viability,[19]; first compound 0.02 µM,0.77
same,relative viability,[19]; first compound 0.06325 µM,0.13
same,relative viability,[19]; first compound 0.2 µM,0.149
same,relative viability,[20]; first compound 0.002 µM,0.88
same,relative viability,[20]; first compound 0.006325 µM,0.594
same,relative viability,[20]; first compound 0.02 µM,0.707
same,relative viability,[20]; first compound 0.06325 µM,0.423
same,relative viability,[20]; first compound 0.2 µM,0.123
same,relative viability,[21]; first compound 0.002 µM,0.997
same,relative viability,[21]; first compound 0.006325 µM,0.993
same,relative viability,[21]; first compound 0.02 µM,0.962
same,relative viability,[21]; first compound 0.06325 µM,0.648
same,relative viability,[21]; first compound 0.2 µM,0.181
